Measurements taken from ChEMBL document CHEMBL1156214, “Identification of GNE-477, a potent and efficacious dual PI3K/mTOR inhibitor” (Bioorg Med Chem Lett, 2010).
In brackets after ≈: the same amount, converted by molar mass. Activity calls are given as the source filed them. No cut-off for these calls is given here.

Assays:
[1] = Hepatic clearance in rat liver microsomes; type: ADME, Microsome
[2] = target: Phosphatidylinositol 4,5-bisphosphate 3-kinase catalytic subunit alpha isoform (Homo sapiens, UniProt P42336)
Description: Inhibition of PI3Kalpha assessed as reduction in 3,4,5-inositoltriphosphate accumulation after 30 mins by fluorescence polarization assay

[3] = Oral bioavailability in rat at 5 mg/kg; type: ADME, organism-based; settings: in vivo
[4] = Antiproliferative activity against human MCF7.1 cells after 3 days by celltiter-glo luminescence assay; type: functional, cell-based; settings: MCF7.1, 72 h
[5] = Plasma protein binding in rat at 1 mg/kg, iv or 5 mg/kg, po; type: ADME, organism-based; settings: read-out: PPB (converted)
[6] = target: Serine/threonine-protein kinase mTOR (Homo sapiens, UniProt P42345); assay: Inhibition of human recombinant mTOR assessed as reduction in GFP-4EBP1 phosphorylation after 30 mins by FRET assay
[7] = Thermodynamic solubility at pH 6.5; type: physicochemical; settings: buffer
Rattus norvegicus = assay: Unbound clearance in rat at 1 mg/kg, iv or 5 mg/kg, po; type: ADME, organism-based; settings: in vivo
[8] = Clearance in rat at 1 mg/kg, iv or 5 mg/kg, po; type: ADME, organism-based; settings: in vivo
[9] = Oral bioavailability in nu/nu mouse at 5 mg/kg; type: ADME, organism-based; settings: in vivo
[10] = Oral bioavailability in Beagle dog at 2 mg/kg; type: ADME, organism-based, Canis lupus familiaris; settings: in vivo
[11] = Clearance in nu/nu mouse at 1 mg/kg, iv or 5 mg/kg, po; type: ADME, organism-based; settings: in vivo
[12] = Clearance in Beagle dog at 1 mg/kg, iv or 2 mg/kg, po; type: ADME, organism-based, Canis lupus familiaris; settings: in vivo
PC-3 [13] = assay: Antiproliferative activity against human PC3 cells after 3 days by celltiter-glo luminescence assay; type: functional, cell-based; settings: PC-3, 72 h
PC-3 [14] = assay: Antitumor activity against human PC3 cells xenografted in nu/nu mouse assessed as tumor growth inhibition at 20 mg/kg, po QD measured after 14 days relative to control; type: functional; set-up: scale not given: the % may be the effect or the level left
PC-3 [15] = assay: Antitumor activity against human PC3 cells xenografted in nu/nu mouse assessed as tumor growth inhibition at 1 mg/kg, po QD measured after 14 days relative to control; type: functional; set-up: scale not given: the % may be the effect or the level left
PC-3 [16] = assay: Antitumor activity against human PC3 cells xenografted in nu/nu mouse assessed as tumor growth inhibition at 5 mg/kg, po QD measured after 14 days relative to control; type: functional; set-up: scale not given: the % may be the effect or the level left
Mus musculus = assay: Toxicity in nu/nu mouse assessed as body weight loss at 1 to 20 mg/kg, po QD measured after 14 days; type: organism-based; set-up: dose 1-20 mg/kg, route oral; settings: in vivo, 336 h
PC-3 [17] = assay: Antitumor activity against human PC3 cells xenografted in nu/nu mouse assessed as tumor incidence at 1 mg/kg, po QD measured after 14 days; type: functional, organism-based; set-up: dose 1 mg/kg
PC-3 [18] = assay: Antitumor activity against human PC3 cells xenografted in nu/nu mouse assessed as tumor incidence at 10 mg/kg, po QD measured after 14 days; type: functional, organism-based; set-up: dose 10 mg/kg
PC-3 [19] = assay: Antitumor activity against human PC3 cells xenografted in nu/nu mouse assessed as tumor growth inhibition at 10 mg/kg, po QD measured after 14 days relative to control; type: functional; set-up: scale not given: the % may be the effect or the level left

Sequence of Phosphatidylinositol 4,5-bisphosphate 3-kinase catalytic subunit alpha isoform (P42336 whole entry, canonical isoform): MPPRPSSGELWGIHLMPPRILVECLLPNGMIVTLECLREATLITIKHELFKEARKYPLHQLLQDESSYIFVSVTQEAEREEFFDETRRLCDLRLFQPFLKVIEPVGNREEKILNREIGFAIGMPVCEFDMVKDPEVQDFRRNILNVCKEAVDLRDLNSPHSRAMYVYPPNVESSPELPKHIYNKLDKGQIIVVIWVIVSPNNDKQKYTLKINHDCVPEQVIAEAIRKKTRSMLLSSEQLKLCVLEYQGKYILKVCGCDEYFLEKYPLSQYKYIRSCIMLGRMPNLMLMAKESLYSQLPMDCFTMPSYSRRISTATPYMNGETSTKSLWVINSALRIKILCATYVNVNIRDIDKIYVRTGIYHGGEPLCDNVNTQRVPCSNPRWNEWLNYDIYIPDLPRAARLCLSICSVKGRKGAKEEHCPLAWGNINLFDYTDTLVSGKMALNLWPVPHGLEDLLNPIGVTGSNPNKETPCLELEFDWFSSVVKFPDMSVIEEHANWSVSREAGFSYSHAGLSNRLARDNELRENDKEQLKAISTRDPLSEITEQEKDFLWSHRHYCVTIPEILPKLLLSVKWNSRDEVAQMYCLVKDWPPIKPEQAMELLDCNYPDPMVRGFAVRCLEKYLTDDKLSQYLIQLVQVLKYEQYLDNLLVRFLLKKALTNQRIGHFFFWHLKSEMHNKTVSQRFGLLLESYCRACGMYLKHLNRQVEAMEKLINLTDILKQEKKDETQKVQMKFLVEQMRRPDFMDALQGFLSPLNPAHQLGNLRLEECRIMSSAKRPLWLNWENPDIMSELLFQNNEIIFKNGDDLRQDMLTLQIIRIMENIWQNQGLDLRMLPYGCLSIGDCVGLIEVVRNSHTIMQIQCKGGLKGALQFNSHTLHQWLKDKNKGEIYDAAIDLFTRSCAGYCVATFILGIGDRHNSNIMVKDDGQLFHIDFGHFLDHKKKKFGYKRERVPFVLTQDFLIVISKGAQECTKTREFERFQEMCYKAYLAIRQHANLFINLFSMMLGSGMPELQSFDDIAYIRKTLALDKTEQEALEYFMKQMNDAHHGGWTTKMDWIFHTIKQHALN

CLhep predicted [1] [mL/min/kg]	IC50 [2] [nM]	fraction unbound [5]	Ki [6] [nM]	solubility thermodynamic [7] [µg/mL]	Unbound clearance (Rattus norvegicus) [mL/min/kg]	clearance [8] [mL/min/kg]	SMILES	EC50 [4] [nM]	other results
12	< 1	0.03	4	3 (≈ 6.22 µM)	433	13	Cc1c(-c2cccc(S(C)(=O)=O)c2)sc2c(N3CCOCC3)nc(-c3cnc(N)nc3)nc12	68	bioavailability [3]: 4%
	7		59	1100 (≈ 2960 µM)			CC(C)(N)c1cc2nc(-c3cnc(N)nc3)nc(N3CCOCC3)c2s1	290	
16		0.48	29	62 (≈ 126 µM)	50		CS(=O)(=O)N1CCN(Cc2cc3nc(-c4cnc(N)nc4)nc(N4CCOCC4)c3s2)CC1	130	bioavailability [9]: 81%; bioavailability [10]: 35%; clearance [11]: 49 mL/min/kg
20	3	0.49	30		43	21	CC(=O)N(C)Cc1sc2c(N3CCOCC3)nc(-c3cnc(N)nc3)nc2c1C	164	
15		0.25	21		52	13	Cc1c(CN2CCN(S(C)(=O)=O)CC2)sc2c(N3CCOCC3)nc(-c3cnc(N)nc3)nc12	143	clearance [12]: 5 mL/min/kg; EC50 (PC-3 [13]): 174 nM; bioavailability [9]: 98%; Activity (PC-3 [14]): 86%; Activity (PC-3 [15]): 33%; bioavailability [3]: 52%; bioavailability [10]: 90%; Activity (PC-3 [16]): 43%; Activity (Mus musculus): < 10%; Activity (PC-3 [17]): inactive; clearance [11]: 15 mL/min/kg; Activity (PC-3 [18]): inactive; Activity (PC-3 [19]): 60%
38	2		4			15	Cc1c(-c2cccc(C(=O)N3CCN(C)CC3)c2)sc2c(N3CCOCC3)nc(-c3cnc(N)nc3)nc12	65	
	1		10	15 (≈ 34.4 µM)			CN(Cc1cc2nc(-c3cnc(N)nc3)nc(N3CCOCC3)c2s1)S(C)(=O)=O	170	
20	1		10			52	CN1CCN(C(=O)c2cccc(-c3cc4nc(-c5cnc(N)nc5)nc(N5CCOCC5)c4s3)c2)CC1	78	
							CS(=O)(=O)N1CCN(Cc2cc3nc(-c4cccc5[nH]ncc45)nc(N4CCOCC4)c3s2)CC1 [PICTILISIB]	720	
7	< 1	0.07	5	1 (≈ 2.13 µM)	800	56	CS(=O)(=O)c1cccc(-c2cc3nc(-c4cnc(N)nc4)nc(N4CCOCC4)c3s2)c1	40	bioavailability [3]: 3%
	5		42	170 (≈ 541 µM)			Nc1ncc(-c2nc(N3CCOCC3)c3sccc3n2)cn1	430	

SMILES	CLhep predicted [1] [mL/min/kg]	IC50 [2] [nM]	fraction unbound [5]	Ki [6] [nM]	solubility thermodynamic [7] [µg/mL]	Unbound clearance (Rattus norvegicus) [mL/min/kg]	clearance [8] [mL/min/kg]	EC50 [4] [nM]	other results
CC(=O)N(C)Cc1cc2nc(-c3cnc(N)nc3)nc(N3CCOCC3)c2s1	2	5	0.53	50	770 (≈ 1930 µM)	94	50	190	
